Where a name gives a salt, the structure may show the parent alone. Blank lines part the entries; values can stand above or below the molecule they belong to.
Legend:
[1] = Body weight and animal number of carrier mice, H460 xenograft test; type: in vivo, BALB/c immunodeficient nude mice; conditions: for Animal No. end: 7 at beginning
Excerpt: To evaluate the in vivo anticancer efficacy of COMPOUND O, H460 human non-small cell lung Cancer xenograft models in immunodeficient nude mice was used. The cell line and mice were maintained in the Pharmacology Lab of ACEA Bio (Hangzhou) CO., Ltd. The BALB/c immunodeficient nude mice were purchased from Shanghai SLAC Laboratory Animal, certification number: SCXKA (Shanghai) 2007-0005. The mouse weight was between 19±2 g. Only female mice were used in this study. The numbers of animals tested were as follows: 7 for each dose group, 7 for positive control group and 7 for negative control group.
Test Control. For negative control, each mouse was administered orally with the solvent only having the same volume and same concentration as those used in COMPOUND O test, 120 mg/kg once every other day (qod) for 25 days. For positive control, an oral anticancer compound, Etoposide was administered orally at 30 mg/kg qod for 25 days.
Preparation an Administration of Test Compounds. COMPOUND O was dissolved in 25% phospholipid (S75) and 75% polyvinylpyrrolidone (PL-PVP) then further diluted to 8 mg/ml in 0.9% NaCl aqueous solution. Each mouse was administered orally with the compound solution. Different dosages of COMPOUND O (120 mg/kg qod and 160 mg/kg q3d) were used in the study.
All used materials including animal food, animal cage, supporting materials and apparatus contacted by animals, were high-pressure sterilized. Nude mice were maintained in laminar flow shelves under SPF condition. After tumor transplantation, mouse weight and tumor size in each compound dosage group were dynamically monitored and plotted. The tumor size was determined by measuring the major axis (a) and minor axis (b) of the tumor, and tumor volume was calculated according to the formula (2) in Example 1.

[2] = tested on: A549 human lung cancer cells; test: Mitotic arrest, phosphohistone H3 staining (mitotic index); type: cell-based; conditions: 33 nM
Excerpt: Microtubules are extremely important in the process of mitosis, during which the duplicated chromosomes of a cell are separated into two identical sets before cleavage of the cell into two daughter cells. Compounds which target microtubules such as paclitaxel and vinblastine suppress the microtubule dynamics and block the process of mitosis. As consequence, cells will be arrested at G2/M phase. To test if COMPOUND O influences the process of mitosis in cancer cell dividing, A549 human lung cancer cells were treated with 33 nM of COMPOUND O and paclitaxel, or 0.2% DMSO that served as negative control. The treated cells were stained with an antibody against phosphohistone H3, a marker for cells undergoing mitosis and mitotic arrest. […] It was 44±8%, 45±3% and 3±1% for paclitaxel, COMPOUND O and DMSO treated A549, respectively.

[3] = tested on: HT1080 cells (human connective tissue cancer cell line); test: Inhibition of cell proliferation, xCelligence cell index; type: cell-based; conditions: HT-1080, 72 hr post compound treatment, read-out: calculated IC50
Excerpt: The biological activity of compounds disclosed herein was monitored and profiled using the Real-Time Cell Electronic Sensing (RT-CES®) system from ACEA Biosciences, Inc. The RT-CES system utilizes cell-substrate impedance technology to monitor cellular behavior inside tissue culture wells in a microtiter plate format. The technology features in the integration of molecular and cell biology with microelectronics and is based on the electronic detection of biological assay process. […]
For measurement of cell-substrate or cell-electrode impedance using RT-CES technology, microelectrodes having appropriate geometries are fabricated onto the bottom surfaces of microtiter plate or similar device, facing into the wells. […] When there are changes to the biological status of the cells analogue electronic readout signals are measured automatically and in real time, and are converted to digital signals for processing and for analysis. In a RT-CES system, a cell index (arbitrary representation of change in impedance) is automatically derived and provided based on measured electrode impedance values. […]
To quantify cell status based on the measured cell-electrode impedance, a parameter termed Cell Index is derived. Cell Index is a quantitative measure of the status of the cells in an electrode-containing well. […]

IC50 [3]: 7.63 nM
Structure (SMILES): CCc1ccc(Nc2nc(-c3c(C)nc4sccn34)cs2)cc1 [COMPOUND O, 2-(4-ethylphenyl)amino-4-(6-methylimidazo[2,1-b]thiazol-5-yl)-thiazole monohydrobromide]
Animal weight (g) Beginning ([1]; 120 mg/kg ig × 11 qod): 20.04 g
Animal weight (g) end ([1]; 120 mg/kg ig × 11 qod): 17.33 g
Body weight of mice (g) 1 day ([1]; 120 mg/kg ig × 11 qod): 20.04 ± 0.51 g
Body weight of mice (g) 3 day ([1]; 120 mg/kg ig × 11 qod): 19.80 ± 1.18 g
Body weight of mice (g) 7 day ([1]; 120 mg/kg ig × 11 qod): 18.86 ± 0.70 g
Body weight of mice (g) 10 day ([1]; 120 mg/kg ig × 11 qod): 18.20 ± 0.68 g
Body weight of mice (g) 14 day ([1]; 120 mg/kg ig × 11 qod): 18.11 ± 0.49 g
Body weight of mice (g) 17 day ([1]; 120 mg/kg ig × 11 qod): 17.43 ± 0.51 g
Body weight of mice (g) 22 day ([1]; 120 mg/kg ig × 11 qod): 17.24 ± 0.72 g
Body weight of mice (g) 24 day ([1]; 120 mg/kg ig × 11 qod): 17.56 ± 1.21 g
Body weight of mice (g) 25 day ([1]; 120 mg/kg ig × 11 qod): 17.33 ± 1.23 g
Animal No. end ([1]; 120 mg/kg ig × 11 qod): 7/7
Animal weight (g) Beginning ([1]; 160 mg/kg ig × 9 q3d): 20.00 g
Animal weight (g) end ([1]; 160 mg/kg ig × 9 q3d): 16.24 g
Body weight of mice (g) 1 day ([1]; 160 mg/kg ig × 9 q3d): 20.00 ± 0.48 g
Body weight of mice (g) 3 day ([1]; 160 mg/kg ig × 9 q3d): 20.54 ± 0.53 g
Body weight of mice (g) 7 day ([1]; 160 mg/kg ig × 9 q3d): 18.64 ± 0.61 g
Body weight of mice (g) 10 day ([1]; 160 mg/kg ig × 9 q3d): 17.89 ± 0.39 g
Body weight of mice (g) 14 day ([1]; 160 mg/kg ig × 9 q3d): 17.83 ± 0.57 g
Body weight of mice (g) 17 day ([1]; 160 mg/kg ig × 9 q3d): 18.24 ± 0.46 g
Body weight of mice (g) 22 day ([1]; 160 mg/kg ig × 9 q3d): 16.91 ± 0.97 g
Body weight of mice (g) 24 day ([1]; 160 mg/kg ig × 9 q3d): 16.53 ± 1.29 g
Body weight of mice (g) 25 day ([1]; 160 mg/kg ig × 9 q3d): 16.24 ± 1.55 g
Animal No. end ([1]; 160 mg/kg ig × 9 q3d): 7/7
mitotic index [2]: 45±3%

Structure (SMILES): COc1cc([C@@H]2c3cc4c(cc3[C@@H](O[C@@H]3O[C@@H]5CO[C@@H](C)O[C@H]5[C@H](O)[C@H]3O)[C@H]3COC(=O)[C@H]23)OCO4)cc(OC)c1O [Etoposide, reference compound]
Animal weight (g) Beginning ([1]; 30 mg/kg ig × 13 qod): 19.97 g
Animal weight (g) end ([1]; 30 mg/kg ig × 13 qod): 17.13 g
Body weight of mice (g) 1 day ([1]; 30 mg/kg ig × 13 qod): 19.97 ± 0.88 g
Body weight of mice (g) 3 day ([1]; 30 mg/kg ig × 13 qod): 19.66 ± 0.75 g
Body weight of mice (g) 7 day ([1]; 30 mg/kg ig × 13 qod): 19.70 ± 1.38 g
Body weight of mice (g) 10 day ([1]; 30 mg/kg ig × 13 qod): 19.66 ± 1.10 g
Body weight of mice (g) 14 day ([1]; 30 mg/kg ig × 13 qod): 18.86 ± 1.07 g
Body weight of mice (g) 17 day ([1]; 30 mg/kg ig × 13 qod): 18.79 ± 1.17 g
Body weight of mice (g) 22 day ([1]; 30 mg/kg ig × 13 qod): 17.86 ± 1.35 g
Body weight of mice (g) 24 day ([1]; 30 mg/kg ig × 13 qod): 17.56 ± 1.44 g
Body weight of mice (g) 25 day ([1]; 30 mg/kg ig × 13 qod): 17.13 ± 1.14 g
Animal No. end ([1]; 30 mg/kg ig × 13 qod): 7/7

Structure (SMILES): CC(=O)O[C@H]1C(=O)[C@@]2(C)[C@H]([C@H](OC(=O)c3ccccc3)[C@]3(O)C[C@H](OC(=O)[C@H](O)[C@@H](NC(=O)c4ccccc4)c4ccccc4)C(C)=C1C3(C)C)[C@]1(OC(C)=O)CO[C@@H]1C[C@@H]2O [paclitaxel]
mitotic index [2]: 44±8%

IC50 [3]: 2.01 nM
Structure (SMILES): CC[C@]1(O)C[C@H]2CN(CCc3c([nH]c4ccccc34)[C@@](C(=O)OC)(c3cc4c(cc3OC)N(C=O)[C@H]3[C@@](O)(C(=O)OC)[C@H](OC(C)=O)[C@]5(CC)C=CCN6CC[C@]43[C@@H]65)C2)C1 [vincristine]
